Here are results for 3 molecules from patent publication US11400073B2, “Prevention and treatment of benign prostatic hyperplasia using a selective inhibitor of the production of reactive oxygen species of mitochondrial origin” (priority 2017, dated 2022).

The subject of one data set is cytokines. To be noted: experimental T. vaginalis prostatic infection models; inhibition of ROS production (Kim S-S., 2016); cited from earlier work.
The next data set deals with VEGF. As to conditions: Ren, 2015; cited from earlier work.
Another data set relates to prostatic ROSs. As to conditions: Ren, 2015; cited from earlier work.
For data set [1], the system named is cell proliferation / apoptosis. As to conditions: Ren, 2015; cited from earlier work.
The next data set deals with HIF-1α. To be noted: Ren, 2015; cited from earlier work.
Another data set deals with PSP94. Description: RT-qPCR of PSP94 in Pb-PRL mouse prostate. Type of data set: in vivo. To be noted: Pb-PRL mice, 60 mg/kg/day, 28 days, vs control; dorsal, lateral, ventral prostate; FIGS. 6A-6C. The protocol:
(§1) ATT (anethole trithione) was administered to probasin-prolactin (Pb-PRL) mice. This is a transgenic mouse model in which prolactin is specifically overexpressed by the epithelial cells of the prostate, leading to development of benign hyperplasia having characteristics in common with the human pathology: tissue hypertrophy, hyperplasia of the epithelial and stromal cells, and intra-prostatic inflammation (Kindblom et al., 2003; Bernichtein et al., 2015a; Bernichtein et al., 2015b).
(§2) The control group (excipient) was treated with the oil alone.
(§3) The animals were sacrificed at the end of the 28 days of treatment (cervical dislocation), and the prostates were harvested and analyzed by the standard procedures previously described in the literature (Bernichtein et al. Prostate 2015, Bernichtein et al. PLoS. ONE 2015, Bernichtein et al. Cancer Res 2017).
(§4) This study was performed by RT-qPCR analysis of the expression of elements associated with androgenic signaling and of conventional targets of the androgen receptor in the prostate (AR, PSP 94, Srd5A1, Srd5A2) (Bernichtein et al. Prostate 2015, Sackmann Sala et al. J Pathol 2017).
Background: Real-time PCR tracks product formation cycle by cycle.

Another data set concerns TNFalpha. Nature of the data set: RT-qPCR of TNFalpha in Pb-PRL mouse prostate. Type of data set: in vivo. As to conditions: Pb-PRL mice, 60 mg/kg/day, 28 days, vs control; dorsal, lateral, ventral prostate; FIGS. 9A-9C. The protocol:
as §1, §2, §3
(§5) The inflammation was measured using two approaches: • CD45 immunolabeling (IHC): making it possible to quantify the number and size of the inflammation sites (image analysis using Calopix software). • RT-qPCR of selected cytokines: IL6 and TNFa.

For another data set, the system named is CD45. Nature of the data set: CD45 immunolabeling (IHC) of inflammation sites in Pb-PRL mouse prostate. Type of data set: in vivo. To be noted: Pb-PRL mice, 60 mg/kg/day, 28 days, vs control; half-prostate; FIG. 7. The protocol: as §1, §2, §3, §5
Data set [2] concerns SRD5A1 (5-alpha-reductase). Nature of the data set: RT-qPCR of SRD5A1 in Pb-PRL mouse prostate. Type of data set: in vivo. As to conditions: Pb-PRL mice, 60 mg/kg/day, 28 days, vs control; dorsal, lateral, ventral prostate; FIGS. 4A-4C. The protocol: as §1, §2, §3, §4
Data set [3] has as its system SRD5A2 (5-alpha-reductase). Description: RT-qPCR of SRD5A2 in Pb-PRL mouse prostate. Type of data set: in vivo. To be noted: Pb-PRL mice, 60 mg/kg/day, 28 days, vs control; dorsal, lateral, ventral prostate; FIGS. 5A-5C. As to the method: as §1, §2, §3, §4
The next data set relates to Pb-PRL mice. Nature of the data set: Scar fibrosis in Pb-PRL mouse prostate. Type of data set: in vivo. As to conditions: 60 mg/kg/day, 28 days, vs control. As to the method: ATT (anethole trithione) was administered to probasin-prolactin (Pb-PRL) mice. This is a transgenic mouse model in which prolactin is specifically overexpressed by the epithelial cells of the prostate, leading to development of benign hyperplasia having characteristics in common with the human pathology: tissue hypertrophy, hyperplasia of the epithelial and stromal cells, and intra-prostatic inflammation (Kindblom et al., 2003; Bernichtein et al., 2015a; Bernichtein et al., 2015b). […] The control group (excipient) was treated with the oil alone. […] The animals were sacrificed at the end of the 28 days of treatment (cervical dislocation), and the prostates were harvested and analyzed by the standard procedures previously described in the literature (Bernichtein et al. Prostate 2015, Bernichtein et al. PLoS. ONE 2015, Bernichtein et al. Cancer Res 2017).

The test system of another data set is IL6. Description: RT-qPCR of IL6 in Pb-PRL mouse prostate. As to conditions: Pb-PRL mice, 60 mg/kg/day, 28 days, vs control; dorsal, lateral, ventral prostate; FIGS. 8A-8C. The data set is classed as in vivo. The protocol:
as §1, §2, §3, §5

In the next data set the test system is HIF1 alpha. Description: RT-qPCR of HIF1 alpha (hypoxia) in Pb-PRL mouse prostate. As to conditions: Pb-PRL mice, 60 mg/kg/day, 28 days, vs control; in one or more prostate lobes; FIGS. 13A-13C. Type of data set: in vivo. As to the method:
as §1, §2, §3
Hypoxia was observed by analysis of HIF1 alpha measured by RT-qPCR at the dorsal, lateral and ventral prostate. The results are presented in FIGS. 13A, 13B and […], respectively.

For data set [4] the following is noted: marketed as SULFARLEM; cited from earlier work.
Data set [5] has as its system epithelial proliferation (Ki-67). Nature of the data set: Epithelial proliferation by IHC Ki-67 in Pb-PRL mouse prostate. Type of data set: in vivo. To be noted: Pb-PRL mice, 60 mg/kg/day by gavage, 28 days, vs control group; half-prostate; FIG. 2. As to the method: as §1, §2, §3
Cell proliferation was measured by IHC Ki-67, which makes it possible to calculate the epithelium proliferation index (manual counting or Calopix software).

The subject of another data set is PHD3 dioxygenase. Nature of the data set: RT-qPCR of PHD3 dioxygenase in Pb-PRL mouse prostate. The data set is classed as in vivo. As to conditions: Pb-PRL mice, 60 mg/kg/day, 28 days, vs control; FIGS. 12A-12C. As to the method:
as §1, §2, §3
(§6) Oxidative stress will be measured using two approaches: • oxidation/carbonylation of the proteins by blot (Oxyblot™, Merck). • PHD1 and PHD3 dioxygenase expression (RT-qPCR).

Data set [6] concerns oxidation/carbonylation of the proteins. Nature of the data set: Oxidation/carbonylation of the proteins by blot (Oxyblot) in Pb-PRL mouse prostate. Type of data set: in vivo. To be noted: Pb-PRL mice, 60 mg/kg/day, 28 days, vs control; all lobes; FIGS. 10A-10C. The protocol:
as §1, §2, §3, §6

The subject of data set [7] is IQ site of the I complex of the mitochondrial respiratory chain. Nature of the data set: Action on mitochondrial ROS production. Type of data set: biochemical. As to conditions: mostly at the IQ site of the I complex of the mitochondrial respiratory chain; unlike conventional antioxidants.
For data set [8] the following is noted: in rats; cited from earlier work.
The subject of data set [9] is mitochondrial oxidative phosphorylation. Nature of the data set: Effect on mitochondrial oxidative phosphorylation. To be noted: preliminarily demonstrated. The data set is classed as biochemical.
For a further data set, the system named is PHD1 dioxygenase. Description: RT-qPCR of PHD1 dioxygenase in Pb-PRL mouse prostate. The data set is classed as in vivo. As to conditions: Pb-PRL mice, 60 mg/kg/day, 28 days, vs control; FIGS. 11A-11C. The protocol:
as §1, §2, §3, §6

On to `c1ccc2c(c1)[I+]c1ccccc1-2` [DPI, diphenylene iodonium], for which, in the data set with cytokines, the overexpression of cytokines entry is on record as “prevents overexpression”.
Take `CC1=NN(c2ccccc2)C(=O)C1` [edaravone]: the “levels of VEGF” value in the data set with VEGF was “decreases”. Further, the “levels of prostatic ROSs” value in the data set on prostatic ROSs is given as “decreases”. Further, in data set [1], the apoptosis result was “promotes” and the cell proliferation result is “reduces”. Further, the “levels of HIF-1α” value with HIF-1α is given as “decreases”.
As for `COc1ccc(-c2cc(=S)ss2)cc1` [ATT, 5-(4-methoxyphenyl)-3H-1,2-dithiole-3-thione], the “expression of PSP94 messenger RNAs” value in the data set on PSP94 is “statistically significant decrease”. For the same molecule, the “expression of TNFalpha” value in the data set with TNFalpha is “decrease”. The “number of positive leukocyte cell sites for the CD45 marker” value in the data set on CD45 was “statistically significant decrease”. Also, in [2], the “expression of 5-alpha-reductase 1 (SRD5A1) messenger RNAs” value is given as “statistically significant decrease”. Also, in [3], the “expression of 5-alpha-reductase 2 (SRD5A2) messenger RNAs” value was “statistically significant decrease”. Besides, the scar fibrosis result in the data set with Pb-PRL mice is “statistically significant increase”. Besides, in the data set on IL6, the “expression of IL6” value is “decrease”. Further, the “expression of the messenger RNAs of the HIF1 alpha hypoxia marker” value in the data set on HIF1 alpha is reported as “statistically significant increase”. For the same molecule, the “side effects associated to long-term use” value in [4] was “no side effect has been reported”. The “epithelial proliferation of the prostate (Ki-67 immunohistochemistry)” value in data set [5] was “statistically significant decrease”. Moreover, in the data set with PHD3 dioxygenase, the “expression of the messenger RNAs of PHD3 dioxygenase” value was “statistically significant decrease”. Besides, the “carbonylation of the proteins (Oxyblot)” value in data set [6] was “statistically significant decrease”. The “action on mitochondrial ROS production” value in data set [7] is “acts directly and selectively”. The half-life in data set [8] was 24 min. Moreover, the “effect on mitochondrial oxidative phosphorylation” value in data set [9] is reported as “does not affect”. Also, the “expression of the messenger RNAs of PHD1 dioxygenase” value in the data set with PHD1 dioxygenase was “statistically significant decrease”.

In general, half-life refers to the time in which the quantity being followed falls by half.
